Laboratory results from US10544156B2, “Hemi-synthetic trilobine analogs for use as a drug” (PIERRE FABRE MEDICAMENT, priority 2015, dated 2020).
Where two headings read alike, the source gives them in different places.

Target: T1, human C-terminal DNMT3A (623-908a.a.) (Homo sapiens, UniProt Q9Y6K1)
T1 construct: The human C-terminal DNMT3A (623-908a.a.); made in house
Test: hDNMT3A assay (restriction-based fluorescence assay)
Assay type: biochemical
Settings: for inhibition at 10 µM: read-out: hDNMT 3A inhibition, Inhibition (%) 10 μM; for inhibition at 32 µM: read-out: hDNMT 3A inhibition, Inhibition (%) 32 μM
From the text: hDNMT3A enzyme inhibition was adapted from the restriction-based fluorescence assay protocol as described in the literature (Ceccaldi et al. Chem Bio Chem 2011, 12, 1337-1345). Briefly, a 5′-labelled biotin oligonucleotide is hybridized to its complementary strand labelled with 6-carboxyfluorescein at the 3′-end into a 384 well microplate (black Optiplates; Perkin Elmer) pre-coated with avidin. The duplex contains a unique CpG site overlapping with a restriction site of a methylation sensitive restriction enzyme. The human C-terminal DNMT3A (623-908a.a.), produced as described in (Gros et al. Nucl. Acids Res. 2013, 41(19):e185), was added in each well (200 ng/well) and mixed with the chemical compounds at desired concentrations and freshly prepared SAM (20 μM final concentration) to start the reaction in a total volume of 50 μL. After 1 hour incubation at 37° C. each well were washed three times with PBS, Tween-20 0.05%, NaCl (500 mM) and three more times with PBST. Specific fluorescent signals were detected with the methylation-sensitive restriction enzyme HpyCH4IV (NEB) as described and measured on a Perkin Elmer Envision detector. The percentage of inhibition is reported. The formula used to calculate the percentage of inhibition is [(X−Y)/X]×100, where X is the signal determined in the absence of the inhibitor and Y is the signal obtained in the presence of the inhibitor. The concentration at which 50% of efficacy of inhibition is observed (EC50) was determined by analysis of a concentration range of the tested compound in triplicates. The non-linear regression fittings with sigmoidal dose-response (variable slope) were performed with GraphPad Prism 4.03 (GraphPad Software).

[1] = concentration at which 50% of efficacy of inhibition is observed, read-out: EC50 (μM), hDNMT 3A inhibition
[2] = interval line below the EC50 of the same compound, read-out: EC50 (μM), range given

T1 sequence (Q9Y6K1 627-912 limits assumed): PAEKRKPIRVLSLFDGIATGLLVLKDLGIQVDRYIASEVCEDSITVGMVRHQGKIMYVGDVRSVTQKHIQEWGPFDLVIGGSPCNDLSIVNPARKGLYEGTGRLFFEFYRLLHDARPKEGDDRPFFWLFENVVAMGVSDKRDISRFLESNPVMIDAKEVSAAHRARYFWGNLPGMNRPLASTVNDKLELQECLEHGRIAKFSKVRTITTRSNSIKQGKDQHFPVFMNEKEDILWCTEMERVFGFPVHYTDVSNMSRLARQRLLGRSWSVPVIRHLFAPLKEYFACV

| Compound | EC50 [1] [µM] | EC50 [2] [µM] | inhibition at 10 µM [%] | inhibition at 32 µM [%] |
| --- | --- | --- | --- | --- |
| CNC(=S)N1CCc2cc(OC)c3c4c2[C@@H]1Cc1ccc(cc1)Oc1cc(ccc1OC)C[C@H]1c2cc(c(cc2CCN1C)O3)O4 [Product 14] | 1.91 | 1.15 to 3.18 | 93 | 96 |
| CCN(CC)CCCNC(=O)N1CCc2cc3c4cc2[C@@H]1Cc1ccc(OC)c(c1)Oc1ccc(cc1)C[C@H]1c2c(cc(OC)c(c2O4)O3)CCN1C [Product 50] | 2.06 | 1.28 to 3.31 | 69 | 91 |
| CCN(CC)CCCNC(=O)N1CCc2cc(OC)c3c4c2[C@@H]1Cc1ccc(cc1)Oc1cc(ccc1OC)C[C@H]1c2cc(c(cc2CCN1C)O3)O4 [Product 49] | 6.1 | 3.72 to 10 | 60 | 75 |
| C=CC(=O)N1CCc2cc(OC)c3c4c2C1Cc1ccc(cc1)Oc1cc(ccc1OC)C[C@H]1c2cc(c(cc2CCN1C)O3)O4 (stereo partly shown) [Product 31] | – | – | 43 | 79 |
| CNC(=O)N1CCc2cc3c4cc2[C@@H]1Cc1ccc(OC)c(c1)Oc1ccc(cc1)C[C@H]1c2c(cc(OC)c(c2O4)O3)CCN1C [Product 45] | – | – | 31 | 73 |
| COc1ccc2cc1Oc1ccc(cc1)C[C@H]1c3c(cc(OC)c4c3Oc3cc5c(cc3O4)CCN(C)[C@H]5C2)CCN1CCCCn1cnc2c(N)ncnc21 [Product 27] | – | – | 21 | 67 |
| CNC(=S)N1CCc2cc3c4cc2[C@@H]1Cc1ccc(OC)c(c1)Oc1ccc(cc1)C[C@H]1c2c(cc(OC)c(c2O4)O3)CCN1C(=S)NC [Product 47] | – | – | 10 | 40 |
| COc1ccc2cc1Oc1ccc(cc1)CC1c3c(cc(OC)c4c3Oc3cc5c(cc3O4)CCN(C)[C@H]5C2)CCN1C(=O)CCCl (stereo partly shown) [Product 32] | 5.34 to 6.87 | – | 57 | 82 |
| COc1ccc2cc1Oc1ccc(cc1)C[C@H]1c3c(cc(OC)c4c3Oc3cc5c(cc3O4)CCN(C)[C@H]5C2)CCN1S(C)(=O)=O [Product 13] | – | – | 39 | 45 |
| COc1ccc2cc1Oc1ccc(cc1)C[C@H]1c3c(cc(OC)c4c3Oc3cc5c(cc3O4)CCN(CCCn3cnc4c(N)ncnc43)[C@H]5C2)CCN1C [Product 24] | – | – | 42 | 77 |
| COc1ccc2cc1Oc1ccc(cc1)C[C@H]1c3c(cc(OC)c4c3Oc3cc5c(cc3O4)CCN(C)[C@H]5C2)CCN1C#N [Product 15] | – | – | 46 | 50 |
| COc1ccc2cc1Oc1ccc(cc1)C[C@H]1c3c(cc(OC)c4c3Oc3cc5c(cc3O4)CCN(CC#N)[C@H]5C2)CCN1CC#N [Product 21] | – | – | 32 | 82 |
| CNC(=O)N1CCc2cc(OC)c3c4c2[C@@H]1Cc1ccc(cc1)Oc1cc(ccc1OC)C[C@@H]1NCCc2cc(c(cc21)O4)O3 [Product 51] | – | – | 2 | 69 |
| COc1ccc2cc1Oc1ccc(cc1)C[C@H]1c3c(cc(OC)c4c3Oc3cc5c(cc3O4)CCN(CCC#N)[C@H]5C2)CCN1C [Product 22] | – | – | 60 | 64 |
| CNC(=S)N1CCc2cc3c4cc2[C@@H]1Cc1ccc(OC)c(c1)Oc1ccc(cc1)C[C@H]1c2c(cc(OC)c(c2O4)O3)CCN1C [Product 46] | – | – | 7 | 52 |
| COc1cc2c3c4c1Oc1cc5c(cc1O4)[C@H](Cc1ccc(OS(=O)(=O)C(F)(F)F)c(c1)Oc1ccc(cc1)C[C@@H]3N(C)CC2)N(C)CC5 [Product 54] | – | – | 0 | 32 |
| COc1ccc2cc1Oc1ccc(cc1)C[C@H]1c3c(cc(OC)c4c3Oc3cc5c(cc3O4)CCN(C)[C@H]5C2)CCN1CCC#N [Product 16] | – | – | 56 | 77 |
| COc1ccc2cc1Oc1ccc(cc1)CC1c3c(cc(OC)c4c3Oc3cc5c(cc3O4)CCN(C)[C@H]5C2)CCN1C(=O)C1CCC(CN2C(=O)C=CC2=O)CC1 (stereo partly shown) [Product 30] | 4.19 to 9.36 | – | 66 | 88 |
| COc1ccc2cc1Oc1ccc(cc1)C[C@H]1c3c(cc(OC)c4c3Oc3cc5c(cc3O4)CCN(C)[C@H]5C2)CCN1CC#N [Product 17] | – | – | 69 | 79 |
| COc1ccc2cc1Oc1ccc(cc1)C[C@H]1c3c(cc(OC)c4c3Oc3cc5c(cc3O4)CCN(CCCCn3cnc4c(N)ncnc43)[C@H]5C2)CCN1C [Product 25] | – | – | 46 | 72 |
| COc1ccc2cc1Oc1ccc(cc1)CC1c3c(cc(OC)c4c3Oc3cc5c(cc3O4)CCN(C)[C@H]5C2)CCN1C(=O)/C=C/CN(C)C (stereo partly shown) [Product 33] | – | – | 32 | 87 |
| COc1ccc2cc1Oc1ccc(cc1)CC1c3c(cc(OC)c4c3Oc3cc5c(cc3O4)CCN(C)[C@H]5C2)CCN1C=O (stereo partly shown) [Product 10] | – | – | 17 | 72 |
| COc1ccc2cc1Oc1ccc(cc1)C[C@H]1c3c(cc(OC)c4c3Oc3cc5c(cc3O4)CCN(C)[C@H]5C2)CCN1CCCn1cnc2c(N)ncnc21 [Product 28] | – | – | 18 | 60 |
| COc1ccc2cc1Oc1ccc(cc1)C[C@H]1c3c(cc(OC)c4c3Oc3cc5c(cc3O4)CCN(C)[C@H]5C2)CCN1C(=O)OCCCn1cnc2c(N)ncnc21 [Product 19] | – | – | 67 | 71 |
| COc1ccc2cc1Oc1ccc(cc1)C[C@H]1c3c(cc(OC)c4c3Oc3cc5c(cc3O4)CCN(C)[C@H]5C2)CCN1C(N)=O [Product 11] | – | – | 43 | 77 |
| COc1ccc2cc1Oc1ccc(cc1)C[C@H]1c3c(cc(OC)c4c3Oc3cc5c(cc3O4)CCN(CC#N)[C@H]5C2)CCN1C [Product 20] | – | – | 50 | 66 |
| CNC(=O)N1CCc2cc3c4cc2[C@@H]1Cc1ccc(OC)c(c1)Oc1ccc(cc1)C[C@H]1c2c(cc(OC)c(c2O4)O3)CCN1C(=O)NC [Product 43] | – | – | 24 | 49 |
| CCN(CC)CCCNC(=S)N1CCc2cc(OC)c3c4c2[C@@H]1Cc1ccc(cc1)Oc1cc(ccc1OC)C[C@H]1c2cc(c(cc2CCN1C)O3)O4 [Product 12] | 2.67 to 3.8 | – | 78 | 93 |
| COc1ccc2cc1Oc1ccc(cc1)C[C@H]1c3c(cc(OC)c4c3Oc3cc5c(cc3O4)CCN(C)[C@H]5C2)CCN1C(=O)OCCCCn1cnc2c(N)ncnc21 [Product 18] | – | – | 66 | 66 |
